In ChEMBL document CHEMBL4765300, “Discovery of a chiral fluorinated azetidin-2-one as a tubulin polymerisation inhibitor with potent antitumour efficacy” (Eur J Med Chem, 2020):
Converted amounts (≈) assume the structure as drawn.

Assays:
[1] = Metabolic stability in human liver microsomes assessed as parent compound remaining at 10 uM measured after 20 mins in presence of NADPH by LC/MS/MS analysis; assay type: ADME, Microsome; conditions: read-out: Stabilty
[2] = Metabolic stability in human liver microsomes assessed as parent compound remaining at 10 uM measured after 5 mins in presence of NADPH by LC/MS/MS analysis; assay type: ADME, Microsome; conditions: read-out: Stabilty
[3] = Intrinsic clearance in human liver microsomes at 10 uM incubated for 60 mins in presence of NADPH by LC/MS/MS analysis; assay type: ADME, Microsome; conditions: read-out: CLH
[4] = Metabolic stability in human liver microsomes assessed as parent compound remaining at 10 uM measured after 30 mins in presence of NADPH by LC/MS/MS analysis; assay type: ADME, Microsome; conditions: read-out: Stabilty
[5] = Half life in human liver microsomes at 10 uM in presence of NADPH by LC/MS/MS analysis; assay type: ADME, Microsome
[6] = Metabolic stability in human liver microsomes assessed as parent compound remaining at 10 uM measured after 10 mins in presence of NADPH by LC/MS/MS analysis; assay type: ADME, Microsome; conditions: read-out: Stabilty
[7] = physchem; conditions: phosphate buffer, pH 7.4
[8] = Metabolic stability in human liver microsomes assessed as parent compound remaining at 10 uM measured after 60 mins in presence of NADPH by LC/MS/MS analysis; assay type: ADME, Microsome; conditions: read-out: Stabilty

Structure (SMILES)	remaining at 20 min, 10 µM [1]	remaining at 5 min, 10 µM [2]	CLint scaled at 10 µM [3]	remaining at 0.5 h, 10 µM [4]	half-life at 10 µM [5]	remaining at 10 min, 10 µM [6]	solubility at 10 min [7]	remaining at 1 h, 10 µM [8]
COc1ccc(/C=C\c2cc(OC)c(OC)c(OC)c2)cc1O [COMBRETASTATIN A4]	37.2%	74.1%	5.37 L/h/kg	17.5%	13.9 min	57.1%	0.00104 mg/mL (≈ 3.29 µM)	5.2%
COc1ccc([C@H]2[C@H](CF)C(=O)N2c2cc(OC)c(OC)c(OC)c2)cc1O	88.4%	85.6%	< 0.516 L/h/kg	90.9%	> 145 min	91.6%	0.0411 mg/mL (≈ 105 µM)	73%
